Results from patent publication US6949556B2, “Acylated 1,2,3,4-tetrahydronaphthyl amines and their use as pharmaceutical agents” (Aventis Pharma Deutschland GmbH, priority 2001, dated 2005).

Biological target: eNOS promoter
Experiment: Activation of eNOS transcription (eNOS promoter firefly luciferase reporter)
Format: cell-based
Settings: EC50 of transcription induction ratio (TIR) vs compound concentration, determined graphically; stably transfected human endothelial cell line, 18 h incubation
Experimental: Activation of eNOS transcription was measured as described in detail in Li et al. “Activation of protein kinase C alpha and/or epsilon enhances transcription of the human endothelial nitric oxide synthase gene”, Mol. Pharmacol. 1998; 53: 630-637. Briefly, a 3.5 kB long fragment 5′ of the starting codon of the eNOS gene was cloned, sequenced and cloned in firefly luciferase expression plasmids to monitor activation of the eNOS promoter by reporter gene activity. A human endothelial cell line stable transfected and expressing this promoter-reporter construct was used for compound testing. Cells were incubated for 18 h with compounds.
All compounds were dissolved in sterile DMSO. A final concentration of 0.5% DMSO in complete medium was allowed. Induction of reporter gene expression in these cells was measured using a standard luciferase assay system (Promega, Cat. No E150) according to the manufacturer's instructions. Luciferase induction in cells incubated with compounds were compared to those incubated with solvent alone. The ratio of both activities (transcription induction ratio, TIR) was plotted as a function of compound concentration. Typically, TIR values started at low concentrations at a ratio of 1, indicating no compound effect, and extended up to a maximum TIR value TIR(max) which indicates the increase of the eNOS transcription. EC50 values of transcription induction ratios as a function of compound concentration were determined graphically.

EC50 [µM] | SMILES
24.6 | O=C(N[C@@H]1CCc2ccccc2C1)c1ccc(C(F)(F)F)nc1 [Compound 50, N-(R)-1,2,3,4-Tetrahydro-naphthalen-2-yl-6-trifluoromethyl-nicotinamide]
1.6 | O=C(N[C@H]1CCc2ccccc2C1)c1ccc(C(F)(F)F)nc1 [Compound 51, N-(S)-1,2,3,4-Tetrahydro-naphthalen-2-yl-6-trifluoromethyl-nicotinamide]
24.4 | Cc1nc2cc(C(=O)N[C@@H]3CCc4ccccc4C3)ccc2[nH]1 [Compound 52, 2-Methyl-1H-benzoimidazole-5-carboxylic acid N-(R)-(1,2,3,4-tetrahydro-naphthalen-2-yl)-amide]
16.3 | Cc1nc(C(F)(F)F)ccc1C(=O)N[C@@H]1CCc2ccccc2C1 [Compound 54, 2-Methyl-N-(R)-1,2,3,4-tetrahydro-naphthalen-2-yl-6-trifluoromethyl-nicotinamide]
1.1 | Cc1nc(C(F)(F)F)ccc1C(=O)N[C@H]1CCc2ccccc2C1 [Compound 55, 2-Methyl-N-(S)-1,2,3,4-tetrahydro-naphthalen-2-yl-6-trifluoromethyl-nicotinamide]
2.75 | N#Cc1ccc(C(=O)N[C@@H]2CCc3ccccc3C2)cn1 [Compound 56, 6-Cyano-N-(R)-1,2,3,4-tetrahydro-naphthalen-2-yl-nicotinamide]
0.5 | N#Cc1ccc(C(=O)N[C@H]2CCc3ccccc3C2)cn1 [Compound 57, 6-Cyano-N-(S)-1,2,3,4-tetrahydro-naphthalen-2-yl-nicotinamide]
4.12 | COc1ccc(-n2ncc(C(=O)N[C@@H]3CCc4ccccc4C3)c2C)cc1 [Compound 60, 1-(4-Methoxy-phenyl)-5-methyl-1H-pyrazole-4-carboxylic acid N-(R)-(1,2,3,4-tetrahydro-naphthalen-2-yl)-amide]
4.47 | O=C(N[C@@H]1CCc2ccccc2C1)c1cncc(-c2cccs2)c1 [Compound 62, N-(R)-1,2,3,4-Tetrahydro-naphthalen-2-yl-5-thiophen-2-yl-nicotinamide]
0.3 | O=C(N[C@H]1CCc2ccccc2C1)c1cncc(-c2cccs2)c1 [Compound 63, N-(S)-1,2,3,4-Tetrahydro-naphthalen-2-yl-5-thiophen-2-yl-nicotinamide]
15.2 | O=C(N[C@@H]1CCc2ccccc2C1)c1onc2ccccc12 [Compound 64, Benzo[c]isoxazole-3-carboxylic acid N-(R)-(1,2,3,4-tetrahydro-naphthalen-2-yl)-amide]
5.86 | CCCc1c(C(=O)N[C@@H]2CCc3ccccc3C2)cnn1-c1cc(Cl)cc(Cl)c1 [Compound 66, 1-(3,5-Dichloro-phenyl)-5-propyl-1H-pyrazole-4-carboxylic acid N-(R)-(1,2,3,4-tetrahydro-naphthalen-2-yl)-amide]
23.5 | CCCc1c(C(=O)N[C@H]2CCc3ccccc3C2)cnn1-c1cc(Cl)cc(Cl)c1 [Compound 67, 1-(3,5-Dichloro-phenyl)-5-propyl-1H-pyrazole-4-carboxylic acid N-(S)-(1,2,3,4-tetrahydro-naphthalen-2-yl)-amide]
0.19 | O=C(N[C@H]1CCc2ccccc2C1)c1ccncc1 [Compound 69, (S)-N-(1,2,3,4-Tetrahydro-naphthalen-2-yl)-isonicotinamide]
